How the values were obtained:
[1] = test system: acute HIV infection of T-lymphoid cells; experiment: assay for the inhibition of acute HIV infection of T-lymphoid cells; format: cell-based; conditions: in accordance with Vacca et al., PNAS 1994, 91: 4096-4100
Text: Compound A is an inhibitor of HIV integrase.

[2] = target: recombinant integrase (HIV integrase) (Human immunodeficiency virus type 1 group M subtype B, UniProt P04585); conditions: strand transfer assay of Example 193 of WO 02/30930
Text: The strand transfer assay is described in Example 193 of WO 02/30930.

[3] = oral bioavailability and pharmacokinetics in rats; format: in vivo; conditions: relative to amorphous and crystalline Compound A
[4] = oral bioavailability and pharmacokinetics in dogs; format: in vivo; conditions: relative to amorphous and crystalline Compound A
[5] = oral absorption and pharmacokinetics in animal models; format: in vivo; conditions: compared to crystalline Compound A per se
Text: The present invention is directed to a pharmaceutically acceptable alkali metal salt of an HIV integrase inhibitor.

**Q.** Which results are given for `O=C(NCc1ccc(F)cc1)c1nc(N2CCCCS2(=O)=O)c2cccnc2c1O` [Compound A, 5-(1,1-dioxido-1,2-thiazinan-2-yl)-N-(4-fluorobenzyl)-8-hydroxy-1,6-naphthyridine-7-carboxamide]?
**A.** inhibition of acute HIV infection of T-lymphoid cells [1]: active; inhibition of integrase strand transfer [2]: potent inhibitor

**Q.** With `O=C(NCc1ccc(F)cc1)c1nc(N2CCCCS2(=O)=O)c2cccnc2c1[O-].[Na+]` [crystalline sodium salt of Compound A, Sodium salt of 5-(1,1-Dioxido-1,2-thiazinan-2-yl)-N-(4-fluorobenzyl)-8-hydroxy-1,6-naphthyridine-7-carboxamide] as the compound, how does the oral bioavailability [3] read?
**A.** superior oral bioavailability

**Q.** What about the “pharmacokinetics (e.g., Cmax and AUC)” value [3] of the same compound?
**A.** improved pharmacokinetics

**Q.** And the oral bioavailability [4]?
**A.** superior oral bioavailability

**Q.** And the “pharmacokinetics (e.g., Cmax and AUC)” value [4]?
**A.** improved pharmacokinetics

**Q.** What about the oral absorption [5] of the same compound?
**A.** superior oral absorption

**Q.** And the pharmacokinetics [5]?
**A.** improved pharmacokinetics

— patent US6924282B2, “Sodium salt of an HIV integrase inhibitor” (Merck & Co., Inc., priority 2001, dated 2005)
